This is an account of results in ChEMBL document CHEMBL1208786, “1-Methyl-1H-pyrrole-2-carbonitrile containing tetrahydronaphthalene derivatives as non-steroidal progesterone receptor antagonists” (Bioorg Med Chem Lett, 2010).

Assay [1] addresses T1, Progesterone receptor (Homo sapiens, UniProt P06401).
T1 sequence (P06401 whole entry): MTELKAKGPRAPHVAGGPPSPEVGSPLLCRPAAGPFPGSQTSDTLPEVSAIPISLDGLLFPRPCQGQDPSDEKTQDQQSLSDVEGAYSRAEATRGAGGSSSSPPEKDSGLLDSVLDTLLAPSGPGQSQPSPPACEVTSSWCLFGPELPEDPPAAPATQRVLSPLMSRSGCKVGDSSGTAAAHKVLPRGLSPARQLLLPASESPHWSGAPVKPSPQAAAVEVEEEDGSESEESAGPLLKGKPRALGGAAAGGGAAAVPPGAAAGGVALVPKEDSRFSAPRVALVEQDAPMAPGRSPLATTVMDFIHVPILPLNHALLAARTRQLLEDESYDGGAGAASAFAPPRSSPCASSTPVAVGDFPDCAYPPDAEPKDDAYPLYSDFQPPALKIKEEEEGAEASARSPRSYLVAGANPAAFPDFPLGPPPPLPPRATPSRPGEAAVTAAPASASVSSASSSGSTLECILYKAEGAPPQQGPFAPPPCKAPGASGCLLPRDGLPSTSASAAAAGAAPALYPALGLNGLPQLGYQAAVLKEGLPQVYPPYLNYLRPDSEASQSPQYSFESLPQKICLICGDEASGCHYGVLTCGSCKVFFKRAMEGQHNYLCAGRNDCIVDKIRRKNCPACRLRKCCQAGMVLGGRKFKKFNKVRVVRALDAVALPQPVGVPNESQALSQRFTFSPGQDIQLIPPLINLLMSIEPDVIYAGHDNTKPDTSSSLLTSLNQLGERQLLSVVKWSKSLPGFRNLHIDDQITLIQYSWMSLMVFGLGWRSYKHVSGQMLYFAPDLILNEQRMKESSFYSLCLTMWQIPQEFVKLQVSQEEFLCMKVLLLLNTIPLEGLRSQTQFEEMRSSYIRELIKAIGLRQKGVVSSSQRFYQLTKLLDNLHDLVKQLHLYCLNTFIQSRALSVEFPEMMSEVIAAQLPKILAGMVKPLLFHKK
As to the kind of experiment: Antagonist activity at progesterone receptor in human T47D cells assessed as inhibition of progesterone-induced alkaline phosphatase activity. The format is functional, cell-based.

The target in assay [2] is T2, Estrogen receptor (Homo sapiens) (UniProt P03372).
T2 sequence (whole entry): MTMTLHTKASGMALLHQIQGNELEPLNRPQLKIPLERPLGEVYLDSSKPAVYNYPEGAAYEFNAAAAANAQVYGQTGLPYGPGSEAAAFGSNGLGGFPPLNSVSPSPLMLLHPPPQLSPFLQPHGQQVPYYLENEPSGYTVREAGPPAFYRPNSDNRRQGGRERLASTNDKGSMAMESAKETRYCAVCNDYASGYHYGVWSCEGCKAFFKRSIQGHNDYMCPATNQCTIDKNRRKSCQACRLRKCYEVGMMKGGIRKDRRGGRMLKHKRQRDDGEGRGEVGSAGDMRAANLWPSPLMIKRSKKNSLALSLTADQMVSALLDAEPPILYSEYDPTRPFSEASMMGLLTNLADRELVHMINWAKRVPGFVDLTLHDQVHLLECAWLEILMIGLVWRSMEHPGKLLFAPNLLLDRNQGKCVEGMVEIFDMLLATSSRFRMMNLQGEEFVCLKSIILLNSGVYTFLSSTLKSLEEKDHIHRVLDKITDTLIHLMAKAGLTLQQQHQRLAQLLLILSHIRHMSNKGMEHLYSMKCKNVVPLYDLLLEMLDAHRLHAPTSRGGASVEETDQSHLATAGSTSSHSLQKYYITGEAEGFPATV
As to the kind of experiment: Antagonist activity at estrogen receptor ligand binding domain up to 10 uM by two hybrid assay.

For assay [3], the target named is T3, Androgen receptor (Homo sapiens, UniProt P10275).
T3 sequence (P10275 whole entry): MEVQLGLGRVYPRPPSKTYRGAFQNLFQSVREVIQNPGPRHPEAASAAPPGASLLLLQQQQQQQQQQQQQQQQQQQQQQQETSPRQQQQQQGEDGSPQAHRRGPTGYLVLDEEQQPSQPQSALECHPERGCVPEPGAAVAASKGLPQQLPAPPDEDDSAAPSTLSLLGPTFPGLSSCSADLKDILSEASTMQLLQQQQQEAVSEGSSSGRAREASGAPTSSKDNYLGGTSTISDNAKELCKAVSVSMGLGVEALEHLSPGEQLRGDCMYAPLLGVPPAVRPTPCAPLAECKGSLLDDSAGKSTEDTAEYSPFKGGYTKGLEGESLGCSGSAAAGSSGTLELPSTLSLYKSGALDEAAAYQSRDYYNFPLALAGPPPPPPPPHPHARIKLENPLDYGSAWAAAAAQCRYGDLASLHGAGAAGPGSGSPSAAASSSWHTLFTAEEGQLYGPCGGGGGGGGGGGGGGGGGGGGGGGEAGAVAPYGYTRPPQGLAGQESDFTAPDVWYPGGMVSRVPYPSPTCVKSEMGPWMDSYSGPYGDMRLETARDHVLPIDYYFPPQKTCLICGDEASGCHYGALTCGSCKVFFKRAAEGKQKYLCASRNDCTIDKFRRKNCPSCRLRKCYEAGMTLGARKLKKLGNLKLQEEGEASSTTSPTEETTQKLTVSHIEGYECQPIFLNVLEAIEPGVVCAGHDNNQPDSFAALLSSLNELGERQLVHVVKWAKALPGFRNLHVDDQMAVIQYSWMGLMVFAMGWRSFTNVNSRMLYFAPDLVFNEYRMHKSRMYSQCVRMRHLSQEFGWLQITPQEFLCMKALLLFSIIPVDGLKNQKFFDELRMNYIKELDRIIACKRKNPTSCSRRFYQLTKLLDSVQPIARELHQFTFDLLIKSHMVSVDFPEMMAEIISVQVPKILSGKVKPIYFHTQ
The experiment in a line: Antagonist activity at androgen receptor ligand binding domain by two hybrid assay.

The target of assay [4] is T4, Glucocorticoid receptor (Homo sapiens) (UniProt P04150).
T4 sequence (whole entry): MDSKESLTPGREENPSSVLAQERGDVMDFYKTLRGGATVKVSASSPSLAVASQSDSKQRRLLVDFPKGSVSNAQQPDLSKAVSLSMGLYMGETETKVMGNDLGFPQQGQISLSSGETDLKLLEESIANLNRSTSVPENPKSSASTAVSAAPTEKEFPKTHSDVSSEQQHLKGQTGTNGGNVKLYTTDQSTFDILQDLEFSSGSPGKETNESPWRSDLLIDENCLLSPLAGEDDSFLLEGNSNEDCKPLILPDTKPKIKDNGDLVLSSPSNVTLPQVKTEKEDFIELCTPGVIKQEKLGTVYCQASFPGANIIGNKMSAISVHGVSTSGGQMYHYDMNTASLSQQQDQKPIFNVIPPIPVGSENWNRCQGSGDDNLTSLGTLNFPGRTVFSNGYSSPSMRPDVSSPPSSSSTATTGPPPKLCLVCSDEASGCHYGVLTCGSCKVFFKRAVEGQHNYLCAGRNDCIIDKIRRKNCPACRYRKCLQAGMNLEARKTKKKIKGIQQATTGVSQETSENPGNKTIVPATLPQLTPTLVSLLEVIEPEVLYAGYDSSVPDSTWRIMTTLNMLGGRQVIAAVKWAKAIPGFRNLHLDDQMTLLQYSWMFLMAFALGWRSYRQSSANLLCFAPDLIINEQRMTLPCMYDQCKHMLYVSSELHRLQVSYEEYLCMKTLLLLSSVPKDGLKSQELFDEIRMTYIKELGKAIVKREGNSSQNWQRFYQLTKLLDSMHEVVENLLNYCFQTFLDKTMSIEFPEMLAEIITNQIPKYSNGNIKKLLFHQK
The experiment in a line: Antagonist activity at glucocorticoid receptor ligand binding domain up to 10 uM by two hybrid assay.

Assay [5] deals with T5, Mineralocorticoid receptor (Homo sapiens) (UniProt P08235).
T5 sequence (whole entry): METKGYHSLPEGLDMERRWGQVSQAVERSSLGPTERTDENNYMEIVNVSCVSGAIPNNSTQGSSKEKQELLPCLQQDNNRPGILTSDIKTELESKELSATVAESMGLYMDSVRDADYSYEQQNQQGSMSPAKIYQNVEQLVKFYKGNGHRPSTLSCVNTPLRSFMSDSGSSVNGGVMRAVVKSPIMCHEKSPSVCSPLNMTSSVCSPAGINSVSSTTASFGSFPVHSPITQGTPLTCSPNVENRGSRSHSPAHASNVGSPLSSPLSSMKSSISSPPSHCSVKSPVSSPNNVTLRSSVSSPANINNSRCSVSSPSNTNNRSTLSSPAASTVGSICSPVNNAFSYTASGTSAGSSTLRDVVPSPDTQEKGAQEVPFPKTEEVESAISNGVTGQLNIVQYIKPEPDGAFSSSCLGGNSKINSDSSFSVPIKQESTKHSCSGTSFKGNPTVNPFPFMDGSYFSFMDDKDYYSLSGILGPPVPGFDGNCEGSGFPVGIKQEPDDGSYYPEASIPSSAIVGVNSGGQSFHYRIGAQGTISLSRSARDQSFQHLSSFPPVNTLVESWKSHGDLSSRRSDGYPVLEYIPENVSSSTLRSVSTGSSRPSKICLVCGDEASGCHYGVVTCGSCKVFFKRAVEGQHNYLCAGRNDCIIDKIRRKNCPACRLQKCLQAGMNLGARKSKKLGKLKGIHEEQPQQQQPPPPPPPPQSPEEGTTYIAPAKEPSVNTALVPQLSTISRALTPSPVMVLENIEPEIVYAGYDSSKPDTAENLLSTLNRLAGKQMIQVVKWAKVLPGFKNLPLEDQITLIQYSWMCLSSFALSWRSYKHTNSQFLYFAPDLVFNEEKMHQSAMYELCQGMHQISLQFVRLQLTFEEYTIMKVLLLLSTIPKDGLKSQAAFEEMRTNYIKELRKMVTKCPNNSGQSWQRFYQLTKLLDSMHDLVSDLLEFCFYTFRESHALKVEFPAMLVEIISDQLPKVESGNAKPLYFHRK
The experiment in a line: Antagonist activity at mineralocorticoid receptor ligand binding domain up to 10 uM by two hybrid assay.

Active and inactive are the calls of the source. No cut-off for these calls is given here.

What is called IC50 is the concentration that inhibits the measured activity by half. In the case of `Cn1c(C#N)ccc1-c1ccc2c(c1)CCCC2=O`, the IC50 in assay [1] came to 28 nM.
On the same count and under the same terms, as for `CC(O)c1ccc(-c2ccc(C#N)n2C)cc1` (stereo not drawn), the figure is 36 nM; as for `Cn1c(C#N)ccc1-c1ccc(C(O)c2cccs2)cc1` (stereo not drawn), 47 nM; as for `CC#CC1(O)CCCc2cc(-c3ccc(C#N)n3C)ccc21` (stereo not drawn), 10 nM.
The same measure, in the same setting: as for `Cn1c(C#N)ccc1-c1ccc2c(c1)CCC/C2=N/O`, the figure is 33 nM.
With `Cn1c(C#N)ccc1-c1ccc2c(c1)CCCC2(C)O` (stereo not drawn), the IC50 in assay [1] turned out to be 6 nM.
Consider `C/C(=N/O)c1ccc(-c2ccc(C#N)n2C)cc1`, for which the IC50 in assay [1] came to 108 nM.
Consider `Cn1c(C#N)ccc1-c1ccc2c(c1)CCCC2(O)c1ccccc1` (stereo not drawn), for which, in assay [1], the IC50 worked out at 35 nM.
For the compound `Cn1c(C#N)ccc1-c1ccc(C(=O)C(C)(C)C)cc1`, the IC50 came to 3 nM in assay [1] and 100 nM in assay [3]. The inhibition result in assay [2], in assay [4] and in assay [5] was “inactive” each time.
`Cn1c(C#N)ccc1-c1ccc2c(c1)CCCC2O` (stereo not drawn): in assay [1], the IC50 was 7 nM.
Take `Cn1c(C#N)ccc1-c1ccc(C(O)c2ccccc2)cc1` (stereo not drawn): the IC50 in assay [1] turned out to be 118 nM.
As for `CC(=O)c1ccc(-c2ccc(C#N)n2C)cc1`, the IC50 in assay [1] worked out at 800 nM.
On the same count and under the same terms, as for `CCC(O)c1ccc(-c2ccc(C#N)n2C)cc1` (stereo not drawn), the figure is 27 nM.
On to `Cn1c(C#N)ccc1-c1ccc(/C(=N\O)C(C)(C)C)cc1`, for which the IC50 worked out at 3 nM in assay [1] and 165 nM in assay [3]. In addition, the inhibition result in assay [2], in assay [4] and in assay [5] was “inactive” in each case.
For `CC/C(=N/O)c1ccc(-c2ccc(C#N)n2C)cc1`, the IC50 in assay [1] stood at 17 nM.
